Assay results taken from patent US11691980B2, “Liphagal analog and multi-targeted kinase inhibitor containing liphagal or analog thereof” (TOHOKU UNIVERSITY, priority 2017, dated 2023).

Columns and labels:
Assay type in all cases: biochemical
SPHK1 = molecular target: T1, SPHK1 (Homo sapiens, UniProt Q9NYA1); assay: mobility shift assay
T1 construct: purchased Carna Biosciences

SGK = molecular target: T2, SGK (Homo sapiens, UniProt O00141); assay: mobility shift assay
T2 construct: purchased Carna Biosciences
T2 sequence (O00141 whole entry): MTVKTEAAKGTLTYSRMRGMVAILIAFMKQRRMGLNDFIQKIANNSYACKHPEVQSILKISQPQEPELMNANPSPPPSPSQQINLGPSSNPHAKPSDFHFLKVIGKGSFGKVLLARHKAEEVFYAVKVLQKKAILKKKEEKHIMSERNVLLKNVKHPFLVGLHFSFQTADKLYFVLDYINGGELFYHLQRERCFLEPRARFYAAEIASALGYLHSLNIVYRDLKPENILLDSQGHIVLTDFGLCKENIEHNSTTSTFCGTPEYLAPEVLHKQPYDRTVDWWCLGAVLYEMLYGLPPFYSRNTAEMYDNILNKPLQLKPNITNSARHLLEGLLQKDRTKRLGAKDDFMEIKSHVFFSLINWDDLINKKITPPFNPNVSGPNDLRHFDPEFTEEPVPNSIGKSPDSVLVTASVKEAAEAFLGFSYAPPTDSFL

MAP3K2_Cascade = molecular target: T3, MAP3K2_Cascade (Homo sapiens, UniProt Q9Y2U5); assay: mobility shift assay
T3 construct: purchased Carna Biosciences

MUSK = molecular target: T4, MUSK (Homo sapiens, UniProt O15146); assay: mobility shift assay
T4 construct: purchased Carna Biosciences

MAPKAPK2 = molecular target: T5, MAPKAPK2 (Homo sapiens, UniProt P49137); assay: mobility shift assay
T5 construct: purchased Carna Biosciences
T5 sequence (P49137 whole entry): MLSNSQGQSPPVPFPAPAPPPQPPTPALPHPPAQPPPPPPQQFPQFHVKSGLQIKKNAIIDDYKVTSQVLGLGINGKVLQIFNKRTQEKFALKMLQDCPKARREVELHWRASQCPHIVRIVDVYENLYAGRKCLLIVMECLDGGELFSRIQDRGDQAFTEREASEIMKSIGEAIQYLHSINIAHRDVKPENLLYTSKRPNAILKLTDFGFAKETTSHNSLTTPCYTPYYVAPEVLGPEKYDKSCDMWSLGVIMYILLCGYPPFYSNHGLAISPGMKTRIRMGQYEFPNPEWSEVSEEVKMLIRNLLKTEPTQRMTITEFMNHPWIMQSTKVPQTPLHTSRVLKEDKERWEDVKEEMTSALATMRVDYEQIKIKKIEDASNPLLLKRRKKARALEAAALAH

RET = molecular target: T6, RET (Homo sapiens, UniProt P07949); assay: mobility shift assay
T6 construct: purchased Carna Biosciences

MELK = molecular target: T7, MELK (Homo sapiens, UniProt Q14680); assay: mobility shift assay
T7 construct: purchased Carna Biosciences

PDGFRα(T674I) = molecular target: T8, PDGFRα(T674I) (Homo sapiens, UniProt P16234, T674I); assay: mobility shift assay
T8 construct: purchased Carna Biosciences

Nuak2 = molecular target: T9, Nuak2 (Homo sapiens, UniProt Q9H093); assay: mobility shift assay
T9 construct: purchased Carna Biosciences

ARG = molecular target: T10, ARG (Homo sapiens, UniProt P42684); assay: mobility shift assay
T10 construct: purchased Carna Biosciences

PKD2 = molecular target: T11, PKD2 (Homo sapiens, UniProt Q9BZL6); assay: mobility shift assay
T11 construct: purchased Carna Biosciences

PKCθ = molecular target: T12, PKCθ (Homo sapiens, UniProt Q04759); assay: mobility shift assay
T12 construct: purchased Carna Biosciences
T12 sequence (Q04759 whole entry): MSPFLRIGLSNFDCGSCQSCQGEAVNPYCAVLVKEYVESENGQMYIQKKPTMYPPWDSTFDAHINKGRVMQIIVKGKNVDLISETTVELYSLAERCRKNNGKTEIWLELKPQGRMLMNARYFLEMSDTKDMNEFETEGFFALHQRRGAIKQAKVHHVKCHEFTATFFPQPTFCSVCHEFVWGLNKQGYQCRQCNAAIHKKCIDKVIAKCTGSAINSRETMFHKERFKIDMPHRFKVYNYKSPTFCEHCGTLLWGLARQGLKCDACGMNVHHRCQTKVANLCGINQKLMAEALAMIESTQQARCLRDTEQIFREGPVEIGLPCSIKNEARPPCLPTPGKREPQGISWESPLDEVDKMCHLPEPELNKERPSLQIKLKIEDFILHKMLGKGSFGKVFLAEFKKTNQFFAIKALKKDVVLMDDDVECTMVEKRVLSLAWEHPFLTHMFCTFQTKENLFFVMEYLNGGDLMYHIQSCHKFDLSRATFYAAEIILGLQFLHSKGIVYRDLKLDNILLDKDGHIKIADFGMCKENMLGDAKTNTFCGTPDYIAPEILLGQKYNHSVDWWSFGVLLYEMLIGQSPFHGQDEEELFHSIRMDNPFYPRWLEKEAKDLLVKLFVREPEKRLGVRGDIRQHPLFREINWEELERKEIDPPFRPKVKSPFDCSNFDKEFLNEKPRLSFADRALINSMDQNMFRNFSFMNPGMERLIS

CDK3/CycE1 = molecular target: T13, CDK3/CycE1 (Homo sapiens, UniProt Q00526); assay: mobility shift assay
T13 construct: purchased Carna Biosciences
T13 sequence (Q00526 whole entry): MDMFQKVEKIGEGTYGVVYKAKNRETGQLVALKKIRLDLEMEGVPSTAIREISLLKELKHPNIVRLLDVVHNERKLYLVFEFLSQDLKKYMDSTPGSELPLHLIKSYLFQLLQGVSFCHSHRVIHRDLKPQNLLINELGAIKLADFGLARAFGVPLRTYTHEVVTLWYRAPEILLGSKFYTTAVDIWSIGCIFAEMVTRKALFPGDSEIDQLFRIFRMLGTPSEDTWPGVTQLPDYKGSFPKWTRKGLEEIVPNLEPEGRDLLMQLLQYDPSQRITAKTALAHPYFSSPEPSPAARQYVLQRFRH
T13 sequence (P24864 whole entry partner): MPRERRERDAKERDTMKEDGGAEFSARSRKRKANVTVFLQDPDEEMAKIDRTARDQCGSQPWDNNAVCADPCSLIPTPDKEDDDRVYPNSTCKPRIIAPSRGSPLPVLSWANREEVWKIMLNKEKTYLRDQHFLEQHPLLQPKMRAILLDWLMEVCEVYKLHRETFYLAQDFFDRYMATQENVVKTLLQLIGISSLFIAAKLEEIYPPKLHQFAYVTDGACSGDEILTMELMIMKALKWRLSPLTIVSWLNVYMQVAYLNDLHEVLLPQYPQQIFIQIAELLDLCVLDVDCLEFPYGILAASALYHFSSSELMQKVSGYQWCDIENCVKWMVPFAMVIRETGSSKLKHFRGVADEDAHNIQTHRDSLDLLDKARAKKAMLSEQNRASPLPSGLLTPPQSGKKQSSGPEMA

ALK = molecular target: T14, ALK (Homo sapiens, UniProt Q9UM73); assay: mobility shift assay
T14 construct: purchased Carna Biosciences

MNK1 = molecular target: T15, MNK1 (Homo sapiens, UniProt Q9BUB5); assay: mobility shift assay
T15 construct: purchased Carna Biosciences

FGFR4(V550L) = molecular target: T16, FGFR4(V550L) (Homo sapiens, UniProt P22455, V550L); assay: mobility shift assay
T16 construct: purchased Carna Biosciences
T16 sequence (P22455 22-802 V550L): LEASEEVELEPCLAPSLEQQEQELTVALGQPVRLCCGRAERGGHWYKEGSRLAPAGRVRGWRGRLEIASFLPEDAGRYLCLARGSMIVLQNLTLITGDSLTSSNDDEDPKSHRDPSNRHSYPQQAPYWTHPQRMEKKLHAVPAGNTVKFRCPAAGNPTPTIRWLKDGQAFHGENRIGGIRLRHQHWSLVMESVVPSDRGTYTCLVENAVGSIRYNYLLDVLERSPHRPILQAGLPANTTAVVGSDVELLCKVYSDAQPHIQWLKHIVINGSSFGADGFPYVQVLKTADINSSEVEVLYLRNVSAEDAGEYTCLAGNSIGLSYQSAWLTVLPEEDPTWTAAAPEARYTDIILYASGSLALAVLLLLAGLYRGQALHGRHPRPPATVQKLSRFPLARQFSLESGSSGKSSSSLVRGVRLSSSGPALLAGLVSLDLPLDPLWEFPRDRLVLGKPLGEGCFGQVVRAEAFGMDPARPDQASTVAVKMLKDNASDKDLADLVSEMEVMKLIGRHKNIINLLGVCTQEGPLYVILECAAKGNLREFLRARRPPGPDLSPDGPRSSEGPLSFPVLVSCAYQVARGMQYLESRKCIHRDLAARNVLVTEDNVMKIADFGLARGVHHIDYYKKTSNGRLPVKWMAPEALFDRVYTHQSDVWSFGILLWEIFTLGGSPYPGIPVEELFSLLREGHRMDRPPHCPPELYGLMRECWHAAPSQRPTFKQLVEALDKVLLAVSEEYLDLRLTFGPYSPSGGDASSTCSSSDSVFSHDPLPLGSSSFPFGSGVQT

RAF1_Cascade = molecular target: T17, RAF1_Cascade (Homo sapiens, UniProt P04049); assay: mobility shift assay
T17 construct: purchased Carna Biosciences

MAP2K4 Cascade = assay: mobility shift assay; settings: 10 μM
p38δ = molecular target: T18, p38δ (Homo sapiens, UniProt O15264); assay: mobility shift assay
T18 construct: purchased Carna Biosciences

NDR2 = molecular target: T19, NDR2 (Homo sapiens, UniProt Q9Y2H1); assay: mobility shift assay
T19 construct: purchased Carna Biosciences

TSSK1 = molecular target: T20, TSSK1 (Homo sapiens, UniProt Q9BXA7); assay: mobility shift assay
T20 construct: purchased Carna Biosciences

EPHA1 = molecular target: T21, EPHA1 (Homo sapiens, UniProt P21709); assay: mobility shift assay
T21 construct: purchased Carna Biosciences

MST2 = molecular target: T22, MST2 (Homo sapiens, UniProt Q13188); assay: mobility shift assay
T22 construct: purchased Carna Biosciences

EPHA3 = molecular target: T23, EPHA3 (Homo sapiens, UniProt P29320); assay: mobility shift assay
T23 construct: purchased Carna Biosciences

PKACγ = molecular target: T24, PKACγ (Homo sapiens, UniProt P22612); assay: mobility shift assay
T24 construct: purchased Carna Biosciences

IRAK1 = molecular target: T25, IRAK1 (Homo sapiens, UniProt P51617); assay: IMAP Assay
T25 construct: purchased Carna Biosciences
T25 sequence (P51617 whole entry): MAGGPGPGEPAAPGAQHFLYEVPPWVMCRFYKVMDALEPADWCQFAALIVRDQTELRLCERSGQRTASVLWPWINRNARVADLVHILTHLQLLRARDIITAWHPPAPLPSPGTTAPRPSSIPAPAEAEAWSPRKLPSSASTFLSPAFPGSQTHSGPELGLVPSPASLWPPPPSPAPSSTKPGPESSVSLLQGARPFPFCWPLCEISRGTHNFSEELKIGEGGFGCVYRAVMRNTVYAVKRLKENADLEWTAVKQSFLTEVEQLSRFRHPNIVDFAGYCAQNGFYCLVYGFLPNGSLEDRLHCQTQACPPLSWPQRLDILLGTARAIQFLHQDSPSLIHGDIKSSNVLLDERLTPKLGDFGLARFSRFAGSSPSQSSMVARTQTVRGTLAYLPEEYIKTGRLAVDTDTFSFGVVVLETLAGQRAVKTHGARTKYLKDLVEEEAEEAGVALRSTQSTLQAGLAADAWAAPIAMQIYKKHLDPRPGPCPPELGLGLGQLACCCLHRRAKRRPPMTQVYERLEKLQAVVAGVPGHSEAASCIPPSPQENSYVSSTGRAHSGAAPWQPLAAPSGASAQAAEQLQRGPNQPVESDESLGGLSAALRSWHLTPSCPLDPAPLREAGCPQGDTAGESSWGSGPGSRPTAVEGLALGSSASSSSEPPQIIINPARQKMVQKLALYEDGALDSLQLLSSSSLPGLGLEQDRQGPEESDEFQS

KIT(T670I) = molecular target: T26, KIT(T670I) (Homo sapiens, UniProt P10721, T670I); assay: mobility shift assay
T26 construct: purchased Carna Biosciences

FER = molecular target: T27, FER (Homo sapiens, UniProt P16591); assay: mobility shift assay
T27 construct: purchased Carna Biosciences

CK2α1/β = molecular target: T28, CK2α1/β (Homo sapiens, UniProt P68400); assay: mobility shift assay
T28 construct: purchased Carna Biosciences

PKN1 = molecular target: T29, PKN1 (Homo sapiens, UniProt Q16512); assay: IMAP Assay
T29 construct: purchased Carna Biosciences

EFHB2 = molecular target: T30, EFHB2 (Homo sapiens, UniProt P29323); assay: mobility shift assay
T30 construct: purchased Carna Biosciences

TSSK3 = molecular target: T31, TSSK3 (Homo sapiens, UniProt Q96PN8); assay: mobility shift assay
T31 construct: purchased Carna Biosciences

EPHA8 = molecular target: T32, EPHA8 (Homo sapiens, UniProt P29322); assay: mobility shift assay
T32 construct: purchased Carna Biosciences

PASK = molecular target: T33, PASK (Homo sapiens, UniProt Q96RG2); assay: mobility shift assay
T33 construct: purchased Carna Biosciences

CLK2 = molecular target: T34, CLK2 (Homo sapiens, UniProt P49760); assay: mobility shift assay
T34 construct: purchased Carna Biosciences

TRK1 = assay: mobility shift assay; settings: 10 μM
MAP3K3_Cascade = assay: mobility shift assay; settings: 10 μM
CK1ε = molecular target: T35, CK1ε (Homo sapiens, UniProt P49674); assay: mobility shift assay
T35 construct: purchased Carna Biosciences

M88K1 = molecular target: T36, M88K1 (Homo sapiens, UniProt Q9UPE1); assay: mobility shift assay
T36 construct: purchased Carna Biosciences

EGFR(L861Q) = molecular target: T37, EGFR(L861Q) (Homo sapiens, UniProt P00533, L861Q); assay: mobility shift assay
T37 construct: purchased Carna Biosciences
T37 sequence (P00533 25-1210 L861Q): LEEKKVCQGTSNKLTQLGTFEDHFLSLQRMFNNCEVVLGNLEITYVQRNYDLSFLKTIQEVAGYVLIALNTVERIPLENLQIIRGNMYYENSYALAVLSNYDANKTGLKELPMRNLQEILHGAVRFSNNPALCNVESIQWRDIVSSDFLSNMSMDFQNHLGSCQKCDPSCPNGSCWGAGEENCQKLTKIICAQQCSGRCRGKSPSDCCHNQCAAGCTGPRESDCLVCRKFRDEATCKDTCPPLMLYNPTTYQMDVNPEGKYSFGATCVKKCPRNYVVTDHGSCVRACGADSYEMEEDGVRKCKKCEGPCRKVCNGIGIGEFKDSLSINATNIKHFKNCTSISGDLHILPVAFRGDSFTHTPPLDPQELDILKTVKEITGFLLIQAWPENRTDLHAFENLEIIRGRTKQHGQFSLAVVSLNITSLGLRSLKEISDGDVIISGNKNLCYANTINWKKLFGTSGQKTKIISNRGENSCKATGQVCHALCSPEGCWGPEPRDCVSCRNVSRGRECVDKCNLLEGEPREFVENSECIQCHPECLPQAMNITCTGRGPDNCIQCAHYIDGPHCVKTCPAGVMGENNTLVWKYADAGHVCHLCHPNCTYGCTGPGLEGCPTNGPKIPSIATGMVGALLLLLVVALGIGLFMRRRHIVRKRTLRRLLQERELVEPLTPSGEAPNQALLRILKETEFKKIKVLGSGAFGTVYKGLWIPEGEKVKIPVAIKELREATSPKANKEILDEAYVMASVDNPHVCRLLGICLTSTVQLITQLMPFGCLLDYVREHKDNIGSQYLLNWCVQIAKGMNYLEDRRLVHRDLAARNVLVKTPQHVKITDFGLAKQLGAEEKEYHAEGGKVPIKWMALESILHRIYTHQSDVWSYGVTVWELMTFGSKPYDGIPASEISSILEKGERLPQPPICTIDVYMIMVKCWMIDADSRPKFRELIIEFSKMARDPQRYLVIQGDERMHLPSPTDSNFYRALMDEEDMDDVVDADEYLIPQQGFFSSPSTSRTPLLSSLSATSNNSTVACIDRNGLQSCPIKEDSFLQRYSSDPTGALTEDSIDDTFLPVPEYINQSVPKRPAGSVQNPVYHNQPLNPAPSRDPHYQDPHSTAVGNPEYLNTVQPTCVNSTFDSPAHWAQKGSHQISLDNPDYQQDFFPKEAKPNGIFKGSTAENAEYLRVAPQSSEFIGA

PIM 1 = molecular target: T38, PIM 1 (Homo sapiens, UniProt P11309); assay: mobility shift assay
T38 construct: purchased Carna Biosciences

SYK = molecular target: T39, SYK (Homo sapiens, UniProt P43405); assay: mobility shift assay
T39 construct: purchased Carna Biosciences

ROS = molecular target: T40, ROS (Homo sapiens, UniProt P08922); assay: mobility shift assay
T40 construct: purchased Carna Biosciences

## C[C@@H]1CC[C@H]2C(C)(C)CCC[C@]2(C)c2c1oc1c(C=O)c(O)c(O)cc21 [LG-1, liphagal]
SPHK1
  inhibition at 10 µM: 59.8%
SGK
  inhibition at 10 µM: 12.4%
MAP3K2_Cascade
  inhibition at 10 µM: 16.8%
MUSK
  inhibition at 10 µM: -8.4%
MAPKAPK2
  inhibition at 10 µM: 0.5%
RET
  inhibition at 10 µM: 10.6%
MELK
  inhibition at 10 µM: 49.2%
PDGFRα(T674I)
  inhibition at 10 µM: 29.2%
Nuak2
  inhibition at 10 µM: 1.5%
ARG
  inhibition at 10 µM: 1.4%
PKD2
  inhibition at 10 µM: 2.8%
PKCθ
  inhibition at 10 µM: -15%
CDK3/CycE1
  inhibition at 10 µM: 40.1%
ALK
  inhibition at 10 µM: 9%
MNK1
  inhibition at 10 µM: 5.3%
FGFR4(V550L)
  inhibition at 10 µM: 7.8%
RAF1_Cascade
  inhibition at 10 µM: 15.3%
MAP2K4 Cascade
  % Inhibition: 9.1%
p38δ
  inhibition at 10 µM: -0.1%
NDR2
  inhibition at 10 µM: -4.9%
TSSK1
  inhibition at 10 µM: 4.1%
EPHA1
  inhibition at 10 µM: 0.5%
MST2
  inhibition at 10 µM: 7.6%
EPHA3
  inhibition at 10 µM: -2.8%
PKACγ
  inhibition at 10 µM: 18.7%
IRAK1
  inhibition at 10 µM: 1.2%
KIT(T670I)
  inhibition at 10 µM: 5.4%
FER
  inhibition at 10 µM: 42.8%
CK2α1/β
  inhibition at 10 µM: -0.9%
PKN1
  inhibition at 10 µM: 5.3%
EFHB2
  inhibition at 10 µM: 5.4%
TSSK3
  inhibition at 10 µM: 85.6%
EPHA8
  inhibition at 10 µM: 0.8%
PASK
  inhibition at 10 µM: 17.4%
CLK2
  inhibition at 10 µM: -25.5%
TRK1
  % Inhibition: −0.5%
MAP3K3_Cascade
  % Inhibition: 48.8%
CK1ε
  inhibition at 10 µM: 37.7%
M88K1
  inhibition at 10 µM: 9.3%
EGFR(L861Q)
  inhibition at 10 µM: 1.5%
PIM 1
  inhibition at 10 µM: 50.3%
SYK
  inhibition at 10 µM: 17%
ROS
  inhibition at 10 µM: 8.6%
